Experimental data taken from article PMC3281204 (2011).

Test system: Modified anti-cocaine aptamer (DNA, aptamer) ATCTCGGGAGACAAGGATAAATCCTTCAATGAAGTGGGTCTCCC
Assay: fluorescence dequenching
Details: apparent; displaced strand 5'-[…]-3'-dabcyl quencher oligo; cocaine 0-5 mM

K D: 134.4 ± 7.2 µM
SMILES: COC(=O)[C@H]1[C@@H](OC(=O)c2ccccc2)C[C@@H]2CC[C@H]1N2C
